Reference: PubChem BioAssay AID1918942 (Molecular Pharmacology Branch, DTP, NCI, 2023)

Test system: 743489-274-T-PDC complex spheroid viability
Test: Anticancer human tumor 743489-274-T-PDC patient-derived renal cell carcinoma cell line growth inhibition
Conditions: for IC50: curve of first compound; for viability, T/C: stronger effect = lower value
Procedure, shortened: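 Drug combinations with the LSD1 inhibitor iadademstat tested on tumor cells co-cultured as spheroids with endothelial cells and mesenchymal stem cells. Concentrations descended in half-log increments from clinical Cmax or 10 microM.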
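Note: spheroids exposed to compounds for 7 days before readout.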
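Throughout, for viability, T/C: 100% = DMSO vehicle control wells.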

`CC1COCCN1c1cc(C2(S(C)(=N)=O)CC2)nc(-c2ccnc3[nH]ccc23)n1` (stereo not given) + NC1CC1c1ccc(-c2cccc(O)c2)cc1 was tested, and the IC50 (second compound 0.1 µM) was > 10 µM, the IC50 (second compound 0.316 µM) was > 10 µM and the IC50 (second compound 1 µM) was > 10 µM. The IC50 (second compound 3.16 µM) was > 10 µM, the IC50 (second compound 10 µM) was > 10 µM and the viability, T/C (second compound 0.1 µM, first compound 0.0316 µM) was 94.6%. For the same compound, the viability, T/C (second compound 0.1 µM, first compound 0.1 µM) was 103%, the viability, T/C (second compound 0.1 µM, first compound 0.316 µM) was 92.3% and the viability, T/C (second compound 0.1 µM, first compound 1 µM) was 94.6%. For the same compound, the viability, T/C (second compound 0.1 µM, first compound 3.16 µM) was 74.4%, the viability, T/C (second compound 0.1 µM, first compound 10 µM) was 68.3% and the viability, T/C (second compound 0.316 µM, first compound 0.0316 µM) was 99.5%. It also gave a viability, T/C (second compound 0.316 µM, first compound 0.1 µM) of 96.6%, a viability, T/C (second compound 0.316 µM, first compound 0.316 µM) of 99.6% and a viability, T/C (second compound 0.316 µM, first compound 1 µM) of 101%. The viability, T/C (second compound 0.316 µM, first compound 3.16 µM) was 90.1%, the viability, T/C (second compound 0.316 µM, first compound 10 µM) was 73.3% and the viability, T/C (second compound 1 µM, first compound 0.0316 µM) was 89.6%. It also gave a viability, T/C (second compound 1 µM, first compound 0.1 µM) of 101%, a viability, T/C (second compound 1 µM, first compound 0.316 µM) of 104% and a viability, T/C (second compound 1 µM, first compound 1 µM) of 95.1%. The viability, T/C (second compound 1 µM, first compound 3.16 µM) was 76.4%, the viability, T/C (second compound 1 µM, first compound 10 µM) was 70.8% and the viability, T/C (second compound 3.16 µM, first compound 0.0316 µM) was 107%. The viability, T/C (second compound 3.16 µM, first compound 0.1 µM) was 114%, the viability, T/C (second compound 3.16 µM, first compound 0.316 µM) was 97.4% and the viability, T/C (second compound 3.16 µM, first compound 1 µM) was 102%. For the same compound, the viability, T/C (second compound 3.16 µM, first compound 3.16 µM) was 75.3%, the viability, T/C (second compound 3.16 µM, first compound 10 µM) was 66.6% and the viability, T/C (second compound 10 µM, first compound 0.0316 µM) was 114%. For the same compound, the viability, T/C (second compound 10 µM, first compound 0.1 µM) was 102%, the viability, T/C (second compound 10 µM, first compound 0.316 µM) was 104% and the viability, T/C (second compound 10 µM, first compound 1 µM) was 110%. The viability, T/C (second compound 10 µM, first compound 3.16 µM) was 74.7% and the viability, T/C (second compound 10 µM, first compound 10 µM) was 70.8%.

`CCN(c1cc(-c2ccc(CN3CCOCC3)cc2)cc(C(=O)NCc2c(C)cc(C)[nH]c2=O)c1C)C1CCOCC1` + NC1CC1c1ccc(-c2cccc(O)c2)cc1 was tested, and the IC50 (second compound 0.1 µM) was > 3 µM, the IC50 (second compound 0.316 µM) was > 3 µM and the IC50 (second compound 1 µM) was > 3 µM. The IC50 (second compound 3.16 µM) was > 3 µM, the IC50 (second compound 10 µM) was > 3 µM and the viability, T/C (second compound 0.1 µM, first compound 0.00949 µM) was 104%. For the same compound, the viability, T/C (second compound 0.1 µM, first compound 0.03 µM) was 110%, the viability, T/C (second compound 0.1 µM, first compound 0.0949 µM) was 95.6% and the viability, T/C (second compound 0.1 µM, first compound 0.3 µM) was 94.2%. For the same compound, the viability, T/C (second compound 0.1 µM, first compound 0.949 µM) was 96.1%, the viability, T/C (second compound 0.1 µM, first compound 3 µM) was 102% and the viability, T/C (second compound 0.316 µM, first compound 0.00949 µM) was 111%. For the same compound, the viability, T/C (second compound 0.316 µM, first compound 0.03 µM) was 98.3%, the viability, T/C (second compound 0.316 µM, first compound 0.0949 µM) was 102% and the viability, T/C (second compound 0.316 µM, first compound 0.3 µM) was 96.3%. For the same compound, the viability, T/C (second compound 0.316 µM, first compound 0.949 µM) was 97.2%, the viability, T/C (second compound 0.316 µM, first compound 3 µM) was 111% and the viability, T/C (second compound 1 µM, first compound 0.00949 µM) was 104%. For the same compound, the viability, T/C (second compound 1 µM, first compound 0.03 µM) was 107%, the viability, T/C (second compound 1 µM, first compound 0.0949 µM) was 103% and the viability, T/C (second compound 1 µM, first compound 0.3 µM) was 102%. It also gave a viability, T/C (second compound 1 µM, first compound 0.949 µM) of 97.2%, a viability, T/C (second compound 1 µM, first compound 3 µM) of 104% and a viability, T/C (second compound 3.16 µM, first compound 0.00949 µM) of 96.6%. The viability, T/C (second compound 3.16 µM, first compound 0.03 µM) was 104%, the viability, T/C (second compound 3.16 µM, first compound 0.0949 µM) was 92.8% and the viability, T/C (second compound 3.16 µM, first compound 0.3 µM) was 99.7%. It also gave a viability, T/C (second compound 3.16 µM, first compound 0.949 µM) of 108%, a viability, T/C (second compound 3.16 µM, first compound 3 µM) of 102% and a viability, T/C (second compound 10 µM, first compound 0.00949 µM) of 101%. The viability, T/C (second compound 10 µM, first compound 0.03 µM) was 100%, the viability, T/C (second compound 10 µM, first compound 0.0949 µM) was 106% and the viability, T/C (second compound 10 µM, first compound 0.3 µM) was 101%. It also gave a viability, T/C (second compound 10 µM, first compound 0.949 µM) of 106% and a viability, T/C (second compound 10 µM, first compound 3 µM) of 104%.
